Measurements published in patent US10086335B2, “Composition and method for biofouling inhibition of membrane separation device” (Ecolab USA Inc., priority 2013, dated 2018).

Key:
[1] = Total chlorine and free chlorine concentration by DPD method; assay type: physicochemical; settings: for free chlorine (FRC) concentration: sulfamic acid:sodium hypochlorite 1.2:1, pH >12
From the text: The total chlorine concentration (amount) can be detected according to the following method. The combined chlorine can oxidize the iodide into iodine. The iodine and free chlorine can react with DPD (N,N-Diethyl-p-phenylenediamine) to form a red substance, and which can be used to represent the concentration of the total chlorine (using the absorbance obtained at 530 nm measurement to represent the concentration of total chlorine). The above free chlorine concentration (amount) may be determined by the following method. The free chlorine which may exist in the form of hypochlorous acid or ions of hypochlorite can react with DPD (N, N-Diethyl-p-phenylenediamine) indicator rapidly to form a pink-colored substance, and the strength of such color can be used to indicate the amount of free chlorine, for example the concentration of free chlorine is determined by the measurements of absorbance on 530 nm. The combined chlorine concentration in water is calculated by subtracting free chlorine concentration from total chlorine concentration (i.e., TRC-FRC). In the present invention, TRC and FRC are measured for example by HACH DR2800 spectrophotometer.
In order to further reduce the FRC, the second stabilizer ammonium sulfate was used in the present example. In the present example, 67 g sodium hypochlorite and 13 g sulfamic acid (sulfamic acid ≥99.5%, AR, Sinopharm Chemical Reagent Co. Ltd.) were first added to 20 g water. The molar ratio between sulfamic acid and sodium hypochlorite was 1.2 to 1. Then the pH was adjusted to more than 12 by sodium hydroxide. According to the addition amount of sodium hypochlorite, the different molar ratios of second stabilizer ammonium sulfates were added. After the solution was uniformly mixed, DPD and iodine were used to determine the TC concentration and DPD was used to determine the FRC concentration.
In the present example, the second stabilizer ammonium sulfate was used in dilute solution to research the reducing effect on FRC. In the present example, 67 g sodium hypochlorite and 13 g sulfamic acid (sulfamic acid ≥99.5%, AR, Sinopharm Chemical Reagent Co. Ltd.) were first added to 3020 g water. The molar ratio between sulfamic acid and sodium hypochlorite was 1.2 to 1. Comparing to the concentration of the sodium hypochlorite and sulfamic acid of the example 1, that of the example 2 was diluted to about 30 times. Then the pH was adjusted to more than 12 by sodium hydroxide. According to the addition amount of sodium hypochlorite, the different molar ratios of second stabilizer ammonium sulfates were added. After the solution was mixed uniformly, DPD and iodine were used to determine the TC concentration and DPD was used to determine the FRC concentration.

[2] = system: floating bacteria in water; assay: Bactericidal effect on the bacteria in water (Total Bacteria Count); settings: raw water; total chlorine 2 ppm and 10 ppm; 3 hours and 24 hours; FIG. 3
Method: This example is mainly focused on using the present method or combination to inhibit the floating bacteria in water. The raw water without adding any biocides was used as the control group. The total chlorine concentration in water was controlled at 2 ppm and 10 ppm, separately. Sodium hypochlorite and two kinds of stabilizers were added to the raw water and sample obtained was used as the experimental group (dual stabilizers). Moreover, the group wherein only sodium hypochlorite was added was the control experimental group 1 (Cl2) and the group wherein sodium hypochlorite and one stabilizer were added to the raw water was the control experimental group 2 (single stabilizer). In the control experimental group 1 and 2, the total chlorine concentrations were controlled at 2 ppm and 10 ppm, separately. The addition method of the above substances and the substances used were identical to the examples 1 or 2. […] After placing the control group, the control experimental group 1, 2 and the experimental group for 3 hours and 24 hours, the number of the bacteria in the water of these samples were determined and compared. The bacterial number was indicated by the Total Bacteria Count (sometimes abbreviated as TBC in the following description), which was determined by referencing the method of 3M™ Petrifilm™ Aerobic Count Plates.

## N.N.O=S(=O)(O)O [second stabilizer, ammonium sulfate]
[1]; concentrated solution, 0.3 moles second stabilizer per 1 mole sodium hypochlorite, reduced from 1200 ppm, FIG. 1
  free chlorine (FRC) concentration: about 40 ppm
[1]; concentrated solution, 0.3 moles second stabilizer per 1 mole sodium hypochlorite, FIG. 1
  effect on total chlorine: without affecting the total chlorine
[1]; dilute solution, 0.4 moles second stabilizer per 1 mole sodium hypochlorite, reduced from about 50 ppm, FIG. 2
  free chlorine (FRC) concentration: about 20 ppm
[1]; dilute solution, 0.4 moles second stabilizer per 1 mole sodium hypochlorite, FIG. 2
  effect on total chlorine amount: without affecting the total chlorine amount

## OCl [sodium hypochlorite]
[2]
  bactericidal effect (Total Bacteria Count): strongest bactericidal effect
